ChEMBL document CHEMBL1201862, “PubChem BioAssay data set” (2004)
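Grown in 96-well plates, cells were treated for 48 hours with each compound at five concentrations. Insufficient inhibition: endpoint recorded as highest concentration tested. Abbreviation: GI50, concentration required for 50% inhibition of growth.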 Activity calls are given as the source filed them. No stated cut-off is given here; in the data, active = GI50 up to about 1.1 µM and inactive = higher.

Columns and labels:
Assay in all cases: NCI-60 cell line screen, 48 h
786-0 = test system: 786-0
A498 = test system: A498
A549 = test system: A549
ACHN = test system: ACHN
CAKI-1 = test system: CAKI-1
CCRF-CEM = test system: CCRF-CEM
COLO 205 = test system: COLO 205
DMS-114 = test system: DMS-114
DMS-273 = test system: DMS-273
EKVX = test system: EKVX
HCC 2998 = test system: HCC 2998
HCT-15 = test system: HCT-15
HL-60 = test system: HL-60
HOP-18 = test system: HOP-18
HOP-62 = test system: HOP-62
HOP-92 = test system: HOP-92
HT-29 = test system: HT-29
IGROV-1 = test system: IGROV-1
K562 = test system: K562
KM-20L2 = test system: KM-20L2
KM12 = test system: KM12
LOX IMVI = test system: LOX IMVI
LXFL 529 = test system: LXFL 529
M14 = test system: M14
M19-MEL = test system: M19-MEL
MOLT-4 = test system: MOLT-4
Malme-3M = test system: Malme-3M
NCI-H226 = test system: NCI-H226
NCI-H23 = test system: NCI-H23
NCI-H460 = test system: NCI-H460
NCI-H522 = test system: NCI-H522
OVCAR-3 = test system: OVCAR-3
OVCAR-4 = test system: OVCAR-4
OVCAR-5 = test system: OVCAR-5
OVCAR-8 = test system: OVCAR-8
RPMI-8226 = test system: RPMI-8226
RXF 393 = test system: RXF 393
SF-268 = test system: SF-268
SF-295 = test system: SF-295
SF-539 = test system: SF-539
SK-MEL-28 = test system: SK-MEL-28
SK-MEL-2 = test system: SK-MEL-2
SK-MEL-5 = test system: SK-MEL-5
SK-OV-3 = test system: SK-OV-3
SN12C = test system: SN12C
SNB-19 = test system: SNB-19
SNB-75 = test system: SNB-75
SW-620 = test system: SW-620
TK-10 = test system: TK-10
U-251 = test system: U-251
UACC-257 = test system: UACC-257
UACC-62 = test system: UACC-62
UO-31 = test system: UO-31
XF498 = test system: XF498
BT-549 = test system: BT-549
DLD-1 = test system: DLD-1
DU-145 = test system: DU-145
HCT-116 = test system: HCT-116
Hs-578T = test system: Hs-578T
MCF7 = test system: MCF7
MDA-MB-231 = test system: MDA-MB-231
MDA-MB-435 = test system: MDA-MB-435
MDA-N = test system: MDA-N
NCI/ADR-RES = test system: NCI/ADR-RES
PC-3 = test system: PC-3
SNB-78 = test system: SNB-78
SR = test system: SR
T47D = test system: T47D

Measured: GI50

C=CCNC(=O)N(CCC)CCCCC(NC(C)=O)C(=O)NCc1ccccc1 (stereo unspecified)
inactive: 786-0 > 100 µM | A498 > 100 µM | A549 > 100 µM | ACHN > 100 µM | CAKI-1 > 100 µM | CCRF-CEM > 100 µM | COLO 205 > 100 µM | DMS-114 > 100 µM | DMS-273 > 100 µM | EKVX > 100 µM | HCC 2998 > 100 µM | HL-60 > 100 µM | HOP-18 72.1 µM | HOP-62 > 100 µM | HOP-92 > 100 µM | HT-29 > 100 µM | IGROV-1 > 100 µM | K562 > 100 µM | KM-20L2 > 100 µM | KM12 > 100 µM | LOX IMVI > 100 µM | LXFL 529 > 100 µM | M14 > 100 µM | M19-MEL > 100 µM | MOLT-4 > 100 µM | Malme-3M > 100 µM | NCI-H226 > 100 µM | NCI-H23 > 100 µM | NCI-H460 > 100 µM | NCI-H522 > 100 µM | OVCAR-3 > 100 µM | OVCAR-4 > 100 µM | OVCAR-5 > 100 µM | OVCAR-8 > 100 µM | RPMI-8226 > 100 µM | RXF 393 > 100 µM | SF-268 > 100 µM | SF-295 > 100 µM | SF-539 > 100 µM | SK-MEL-28 > 100 µM | SK-MEL-2 > 100 µM | SK-MEL-5 > 100 µM | SK-OV-3 > 100 µM | SN12C > 100 µM | SNB-19 > 100 µM | SNB-75 > 100 µM | SW-620 > 100 µM | TK-10 > 100 µM | U-251 > 100 µM | UACC-257 > 100 µM | UACC-62 > 100 µM | UO-31 > 100 µM | XF498 > 100 µM
> 100 µM: HCT-15

CC(C)(C)C(=O)OCC1C(=O)OCC1C(=O)N1Cc2cc3ccccc3nc2C1 (stereo unspecified)
active: CCRF-CEM 0.711 µM | COLO 205 0.957 µM | HL-60 0.748 µM | K562 0.728 µM | MOLT-4 1.06 µM | NCI-H522 0.569 µM | SR 0.757 µM
1.75 µM: HCT-15
inactive: 786-0 2.5 µM | A498 13.2 µM | A549 15.2 µM | ACHN 2.36 µM | BT-549 3.14 µM | CAKI-1 1.28 µM | DLD-1 1.55 µM | DMS-114 4.81 µM | DMS-273 3.04 µM | DU-145 16.4 µM | EKVX 7.41 µM | HCC 2998 15.5 µM | HCT-116 2.09 µM | HOP-18 2.61 µM | HOP-62 14.4 µM | HOP-92 1.5 µM | HT-29 3.5 µM | Hs-578T 15.3 µM | IGROV-1 15 µM | KM-20L2 6.07 µM | KM12 15.8 µM | LOX IMVI 4.34 µM | LXFL 529 1.47 µM | M14 2.8 µM | M19-MEL 3.54 µM | MCF7 3.47 µM | MDA-MB-231 4.62 µM | MDA-MB-435 3.9 µM | MDA-N 3.83 µM | Malme-3M 1.46 µM | NCI-H226 6.56 µM | NCI-H23 4.55 µM | NCI-H460 3.93 µM | NCI/ADR-RES 4.92 µM | OVCAR-3 4.07 µM | OVCAR-4 2.38 µM | OVCAR-5 10.5 µM | OVCAR-8 3.99 µM | PC-3 10.9 µM | RPMI-8226 1.31 µM | RXF 393 1.5 µM | SF-268 8.91 µM | SF-295 14.3 µM | SF-539 4.46 µM | SK-MEL-28 3.21 µM | SK-MEL-2 8.59 µM | SK-MEL-5 15.2 µM | SK-OV-3 16.1 µM | SN12C 5.28 µM | SNB-19 18.3 µM | SNB-75 7.74 µM | SNB-78 1.53 µM | SW-620 1.57 µM | T47D 2.38 µM | TK-10 2.15 µM | U-251 9.2 µM | UACC-257 4.42 µM | UACC-62 4.51 µM | UO-31 2.47 µM
